According to patent US9920061B2, “Imidazo[1,5-A]pyrimidinyl carboxamide compounds and their use in the treatment of medical disorders” (Lysosomal Therapeutics Inc., priority 2016, dated 2018):
≈ marks a conversion by molar mass, not a printed value. Read-outs that look alike come from different tables or passages of the source.

Experiments:
[1] = target: T1, glucocerebrosidase (Gcase) (Homo sapiens, UniProt P04062); assay: Glucocerebrosidase (Gcase) activation assay, 4-methylumbelliferyl-beta-D-glucopyranoside substrate, with saposin C; type: biochemical
T1 sequence (P04062 40-536): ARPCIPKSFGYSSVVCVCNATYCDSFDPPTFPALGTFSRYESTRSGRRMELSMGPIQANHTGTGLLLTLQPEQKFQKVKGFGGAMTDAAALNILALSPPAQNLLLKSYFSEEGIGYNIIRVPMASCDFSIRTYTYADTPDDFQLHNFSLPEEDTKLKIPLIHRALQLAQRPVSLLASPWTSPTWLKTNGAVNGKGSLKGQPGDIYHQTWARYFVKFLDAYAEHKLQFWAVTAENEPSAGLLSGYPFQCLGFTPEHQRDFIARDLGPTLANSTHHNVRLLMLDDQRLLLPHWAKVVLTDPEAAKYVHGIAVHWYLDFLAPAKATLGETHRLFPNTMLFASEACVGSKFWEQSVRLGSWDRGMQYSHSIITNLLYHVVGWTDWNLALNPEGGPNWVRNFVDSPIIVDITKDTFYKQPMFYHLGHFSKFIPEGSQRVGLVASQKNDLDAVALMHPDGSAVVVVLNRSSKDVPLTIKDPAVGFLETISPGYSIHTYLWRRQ
Experimental: The ability of exemplary compounds to activate glucocerebrosidase (Gcase) was measured.
A 484 μL aliquot of a 1.0 mg/mL solution of phosphatidylserine (PS) (Sigma P7769) in chloroform was evaporated under a stream of nitrogen for 1 hour. The lipid film was dissolved over 4 minutes of vigorous vortexing in 40 mL of 176 mM K2HPO4/50 mM citric acid (pH 4.7) containing 7.5 μL of triton X-100, resulting in a mixed micellar preparation with a composition of 0.32 mM triton and 0.37 mol % PS. 4-Methylumbelliferyl-beta-D-glucopyranoside (ACROS-337025000) was dissolved in the micellar solution to a final concentration of 2 mM for use as the reaction substrate.
Test compounds were diluted to the desired concentrations with dimethylsulfoxide (DMSO) from 10 mM stocks, and 0.41 μL of the DMSO compound mixture was added to 100 μL of micellar solution containing 10 nM GCase and 100 nM saposin C (Enzo ALX-201-262-C050). Pre-incubation was allowed to occur for 30 minutes at room temperature, after which the reaction was initiated by combining 25 μL of substrate solution with 25 μL of compound/GCase/saposin mixture. The reaction proceeded for 15 minutes at room temperature and was stopped by adding 150 μL of 1M glycine, pH 12.5. The endpoint of the reaction was monitored by measuring fluorescence intensity (excitation: 365 nm; emission: 440 nm) on a SpectraMax i3 instrument (Molecular Devices). Test compounds were screened at 1.0 and 0.1 μM final concentration, and subsequent 8-point dose response curves were obtained using 3-fold dilutions from a maximum final concentration of […].

[2] = Compound solubility in water; type: physicochemical
[3] = 0.1 μM test compound, read-out: Percent Gcase Activation 0.1 μM Test Compound
[4] = 1 μM test compound, read-out: Percent Gcase Activation 1 μM Test Compound
[5] = test compound at 0.1 μM, read-out: Percent Gcase Activation, 0.1 μM Test Compound
[6] = test compound at 1.0 μM, read-out: Percent Gcase Activation, 1 μM Test Compound

activation at 0.1 µM [1, 3] [%]	activation at 1 µM [1, 4] [%]	solubility [2] [µg/mL]	activation at 0.1 µM [1, 5] [%]	activation at 1 µM [1, 6] [%]	solubility ([2]; in water) [µg/mL]	Structure (SMILES)
< 10	< 30	24.4 (≈ 94.5 µM)				Cc1cc(C)n2cnc(C(=O)N[C@@H](C)C3CC3)c2n1 [III-6]
< 10	< 30	25.2 (≈ 92.5 µM)				Cc1cc(C)n2cnc(C(=O)NC(C)(C)C3CC3)c2n1 [III-8]
< 10	> 60	14.3 (≈ 47.6 µM)				Cc1cc(C)n2cnc(C(=O)NC(C)C3CCCCC3)c2n1 (centres unmarked) [III-9]
10 to 20	> 60	32.6 (≈ 109 µM)				Cc1cc(C)n2cnc(C(=O)NC(CC(C)C)C3CC3)c2n1 (centres unmarked) [III-11]
10 to 20	> 60	9.3 (≈ 27.5 µM)				Cc1cc(-c2ccc(F)cc2)nc2c(C(=O)N[C@@H](C)C3CC3)ncn12 [III-12]
< 10	< 30	25 (≈ 73.9 µM)				Cc1cc(-c2ccc(F)cc2)n2cnc(C(=O)N[C@@H](C)C3CC3)c2n1 [III-13]
< 10	30 to 60	37.8 (≈ 121 µM)				Cc1cc(C)n2cnc(C(=O)NC(C3CC3)C(F)(F)F)c2n1 (centres unmarked) [III-14]
> 20	> 60	4 (≈ 11.3 µM)				Cc1cc(C)n2cnc(C(=O)NC(C3CCCCC3)C(F)(F)F)c2n1 (centres unmarked) [III-15]
> 20	> 60	1.5 (≈ 4.59 µM)				Cc1cc(C)n2cnc(C(=O)NC(C)(C)C3CC4(CCC4)C3)c2n1 [III-25]
> 20	> 60	4.6 (≈ 12.7 µM)				Cc1cc(-c2ccccn2)nc2c(C(=O)NC(CC(C)C)C3CC3)ncn12 (centres unmarked) [III-27]
< 10	> 60	19.7 (≈ 54.2 µM)				Cc1cc(-c2ccncc2)nc2c(C(=O)NC(CC(C)C)C3CC3)ncn12 (centres unmarked) [III-28]
> 20	> 60	10.5 (≈ 29.8 µM)				CCc1cc(-c2ccc(F)cc2)nc2c(C(=O)N[C@@H](C)C3CC3)ncn12 [III-33]
< 10	< 30	0.2 (≈ 0.564 µM)				COc1cc(-c2ccc(F)cc2)nc2c(C(=O)N[C@@H](C)C3CC3)ncn12 [III-34]
< 10	< 30					Cc1nc2c(C(=O)N[C@@H](C)C3CC3)ncn2c(C)c1-c1ccc(F)cc1 [III-40]
< 10	30 to 60					Cc1cc(-c2cccnc2)nc2c(C(=O)NC(C)C(C)C3CC3)ncn12 (centres unmarked) [III-189]
			< 10	30 to 60		Cc1cc(-c2cccc(OC(F)(F)F)n2)nc2c(C(=O)N[C@H](C)C3CC3)ncn12 [IV-12]
			10 to 20	> 60		Cc1nscc1-c1cc(C)n2cnc(C(=O)N[C@@H](C3CC3)C(F)(F)F)c2n1 [IV-97]
			> 20	> 60		Cc1sncc1-c1cc(C)n2cnc(C(=O)N[C@H](C3CC3)C(F)(F)F)c2n1 [IV-98]
			> 20	> 60		Cc1sncc1-c1cc(C)n2cnc(C(=O)N[C@@H](C3CC3)C(F)(F)F)c2n1 [IV-99]

Second part, the compound before the results:

Structure (SMILES)	activation at 0.1 µM [1, 3] [%]	activation at 1 µM [1, 4] [%]	solubility [2] [µg/mL]	activation at 0.1 µM [1, 5] [%]	activation at 1 µM [1, 6] [%]	solubility ([2]; in water) [µg/mL]
C#Cc1ccc(NC(=O)c2ncn3c(C4CCCC4)cc(C)nc23)cc1 [III-1]	10 to 20	30 to 60	0.2 (≈ 0.581 µM)			
C#Cc1cccc(C2(NC(=O)c3ncn4c(C)cc(C)nc34)CC2)c1 [III-2]	< 10	30 to 60	19.7 (≈ 59.6 µM)			
C#Cc1cccc(C(NC(=O)c2ncn3c(C)cc(C)nc23)C(F)(F)F)c1 (centres unmarked) [III-3]	> 20	> 60	2.2 (≈ 5.91 µM)			
C#Cc1cccc([C@@H](NC(=O)c2ncn3c(C)cc(C)nc23)C(F)(F)F)c1 [III-4]	> 20	> 60	6.1 (≈ 16.4 µM)			
C#Cc1cccc([C@H](NC(=O)c2ncn3c(C)cc(C)nc23)C(F)(F)F)c1 [III-5]	> 20	> 60	5.9 (≈ 15.8 µM)			
Cc1cc(C)n2cnc(C(=O)NC(c3ccc(F)cc3)C(F)(F)F)c2n1 (centres unmarked) [III-16]	10 to 20	> 60	24.3 (≈ 66.3 µM)			
CNc1cc(C)n2cnc(C(=O)NC(c3ccc(F)cc3)C(F)(F)F)c2n1 (centres unmarked) [III-17]	> 20	> 60	0.9 (≈ 2.36 µM)			
CNc1cc(C)nc2c(C(=O)NC(c3ccc(F)cc3)C(F)(F)F)ncn12 (centres unmarked) [III-18]	> 20	> 60	1.7 (≈ 4.46 µM)			
COc1cc(C)n2cnc(C(=O)NC(c3ccc(F)cc3)C(F)(F)F)c2n1 (centres unmarked) [III-19]	10 to 20	> 60	8.7 (≈ 22.8 µM)			
COc1cc(C)nc2c(C(=O)NC(c3ccc(F)cc3)C(F)(F)F)ncn12 (centres unmarked) [III-20]	< 10	> 60	6.9 (≈ 18 µM)			
CCOc1cc(C)n2cnc(C(=O)NC(c3ccc(F)cc3)C(F)(F)F)c2n1 (centres unmarked) [III-21]	> 20	> 60	1.1 (≈ 2.78 µM)			
COCc1cc(C)n2cnc(C(=O)NC(c3ccc(F)cc3)C(F)(F)F)c2n1 (centres unmarked) [III-22]	< 10	> 60	24.7 (≈ 62.3 µM)			
COCc1cc(C)nc2c(C(=O)NC(c3ccc(F)cc3)C(F)(F)F)ncn12 (centres unmarked) [III-23]	> 20	> 60	10.9 (≈ 27.5 µM)			
Cc1cc(Cl)nc2c(C(=O)NC(c3ccc(F)cc3)C(F)(F)F)ncn12 (centres unmarked) [III-24]	10 to 20	> 60	10.4 (≈ 26.9 µM)			
Cc1cc(-c2ccc(F)cc2)nc2c(C(=O)NC(C)(C)C3CC3)ncn12 [III-26]	> 20	> 60	1.6 (≈ 4.54 µM)			
Cc1cc(-c2ccccn2)nc2c(C(=O)N[C@@H](C)c3ccccc3F)ncn12 [III-29]	10 to 20	> 60	0.9 (≈ 2.4 µM)			
COc1ccccc1[C@H](C)NC(=O)c1ncn2c(C)cc(-c3ccc(F)cc3)nc12 [III-30]	10 to 20	> 60	1.3 (≈ 3.21 µM)			
CCC(NC(=O)c1ncn2c(C)cc(-c3ccccn3)nc12)c1ccc(F)cc1 (centres unmarked) [III-31]	10 to 20	> 60	2.7 (≈ 6.93 µM)			
Cc1cn2cnc(C(=O)N[C@@H](C)C3CC3)c2nc1-c1ccc(F)cc1 [III-32]	< 10	< 30				
Cc1c(-c2ccc(F)cc2)cnc2c(C(=O)N[C@@H](C)C3CC3)ncn12 [III-38]	< 10	< 30				
Cc1nc2c(C(=O)N[C@@H](C)C3CC3)ncn2cc1-c1ccc(F)cc1 [III-39]	< 10	< 30				
Cc1cc(Oc2ccc(F)cc2)nc2c(C(=O)NC(C)(C)C3CC3)ncn12 [III-77]	< 10	30 to 60				
Cc1cc(-c2ccc(C#N)c(O)c2)nc2c(C(=O)NC(C3CC3)C(F)(F)F)ncn12 (centres unmarked) [III-159]	< 10	< 30				
Cc1cc(-c2ccc(C#N)o2)nc2c(C(=O)N[C@H](C3CC3)C(F)(F)F)ncn12 [IV-34]				> 20	> 60	
Cc1cc(-c2ccc(C#N)o2)nc2c(C(=O)N[C@@H](C3CC3)C(F)(F)F)ncn12 [IV-35]				> 20	> 60	
Cc1cc(-c2nccs2)nc2c(C(=O)NC(C)(C)C)ncn12 [IV-54]				< 10	< 30	
COc1cccc(-c2cc(C)n3cnc(C(=O)NC(C4CC4)C(F)(F)F)c3n2)n1 (centres unmarked) [IV-91]						1.4 (≈ 3.45 µM)
Cc1cc(C#N)c(-c2cc(C)n3cnc(C(=O)N[C@H](C4CC4)C(F)(F)F)c3n2)o1 [IV-93]				> 20	> 60	
Cc1cc(C#N)c(-c2cc(C)n3cnc(C(=O)N[C@@H](C4CC4)C(F)(F)F)c3n2)o1 [IV-94]				> 20	> 60	
Cc1nscc1-c1cc(C)n2cnc(C(=O)N[C@H](C3CC3)C(F)(F)F)c2n1 [IV-96]				10 to 20	> 60	
